pIC50: −log10 of the molar value.
Tests used:
[1] = tested on: TNF-α; assay: TNF-α activity inhibition experiment in LPS-stimulated PBMC (ELISA); type: cell-based; conditions: Homo sapiens, compound 10 nM, LPS 1 ug/ml, 72 hours, read-out: Inhibition rate of TNF-a (%)
Experimental: (§1) All operations of this experiment were carried out according to the conventional experimental process of this kind of experiment at present. Peripheral blood from healthy volunteers was collected by routine standard procedure and cultured in 1640 medium (+10% FBS) to obtain PBMC. After recovery, PBMC was centrifuged and resuspended in serum-free medium. After counting, adjusted the density to be 6.25×10^5/ml; then inoculated 160 ul to a 96-well plate, 1×10^5/well; 20 ul 10× compound and DMSO were added, and incubated for 1 hour in an incubator; then 20 ul 10 XLPS was added resulting the final concentration of 1 ug/ml and incubated in an incubator for 72 hours. Centrifuged the cell plate at 1500 rpm and aspirated 50 ul supernatant according to the ELISA operation. After operating according to the kit, a microplate reader was used to read at 450 nm. The concentration of compound was 10 nM, and DMSO was added as control group. Materials used in this experiment: 96 well plate (Corning, #3599), ELISA kit (Thermo), LPS (Sigma, USA).

[2] = tested on: IL-2; assay: IL-2 expression change in anti-human CD3 stimulated PBMC (ELISA); type: cell-based; conditions: compound 10 nM, anti-human CD3 10 ug/ml, 24 hours
Experimental: as §1, with “plate, 2 holes each,” for “plate,”, “ul 10× anti-human CD3” for “ul 10 XLPS”, “of 10” for “of 1”, “for 24” for “for 72”

[3] = tested on: IFNγ; assay: IFNγ expression change in anti-human CD3 stimulated PBMC (ELISA); type: cell-based; conditions: compound 10 nM, anti-human CD3 10 ug/ml, 24 hours
Experimental: as §1, with “plate, 2 holes each,” for “plate,”, “ul 10× anti-human CD3” for “ul 10 XLPS”, “of 10” for “of 1”, “for 24” for “for 72”, “USA). It was found from the test results of the following table that the compounds of the examples of the present invention could be used to regulate the expression of IFNγ.” for “USA).”

[4] = tested on: MM.1S cells; assay: Effect of the compound on the proliferation of MM.1S cells (MTS); type: cell-based; conditions: Homo sapiens, MM1.S, 168 h, 7 days, read-out: Cell inhibitory activity (IC50)
Method in brief: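 In 1640 medium + 10% FBS, 20,000 cells per well were treated with 5-fold compound dilutions at 0.2% DMSO for 7 days at 37° C., 5% CO2. MTS was read after 3–4 h as OD490−OD690, inhibition was calculated against DMSO and blank wells, and IC50 was fitted; three independent experiments were run.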

[5] = tested on: Mino cells; assay: Effect of the compound on the proliferation of Mino cells (MTS); type: cell-based; conditions: Homo sapiens, 72 h, 3 days, read-out: Inhibitory activity (IC50)
Experimental: Mino cells were cultured with 1640 plus […] and collected. The cell concentration was diluted according to the action time of 3 days, and 90 ul cell suspension was added to each well of the 96-well cell plate to make the cell count to be 8000. 10 ul of DMSO with a final concentration of 0.2% was added to the control cell wells. The compound was diluted 5-fold with the 10 mM stock solution, and 10 ul was also added to the compound cell wells (the final concentration of DMSO was 0.2%). The cells were placed in a 37° C., […] incubator and incubated for 3 days. After preparing the reaction solution according to the MTS kit (Promega, G5430), 20 μL was added to each well, incubated in a 37° C., 5% CO2 incubator for 3-4 h. Read the 490 nm absorbance value with a microtiter plate, and used the 690 nm absorbance value as the background value and OD490-OD690 as the final initial data. The formula for calculating the inhibition rate of the compound was: inhibition rate=(OD DMSO-ODcompound)/(ODDMSO-Oblank)×100%. The compound's proliferation inhibition IC50 was fitted by Graph Pad Prism 5.0. The experiment was repeated three times, and three parallel experiments were used to calculate the average and standard deviation each time.

[6] = tested on: prostate cancer cells DU145; assay: Proliferation of other tumor cells, DU145 (WST-8); type: cell-based; conditions: Homo sapiens, DU-145, 96 h, 4 days, read-out: Inhibitory activity on proliferation, DU145 (IC50)
Experimental: (§2) The human triple negative breast cancer cells MDA-MB-468 and MDA-MB-231 used in this experiment were purchased from the Shanghai Cell Bank, in which L-15 medium added with 10% fetal bovine serum (FBS) and 1% double antibody was used. At 37° C., MDA-MB-468 and MDA-MB-231 cells were cultured in an incubator without CO2. Colorectal cancer cells HCT-116 were cultured in McCOY's 5A medium with 1% double antibody and 10% fetal bovine serum (FBS); prostate cancer cells DU145 were cultured in MEM medium with 1% double antibody and 10% fetal bovine serum (FBS); prostate cancer cells PC-3 were cultured in F-12 K medium with 1% double antibody and 10% fetal bovine serum (FBS); grew at 37° C., 5% CO2.
(§3) In the cell activity test experiment, 90 μL cell suspension with appropriate concentration was added to a 96-well cell culture plate according to the cell growth, each compound to be tested was gradient diluted with the corresponding medium, 10 μL diluted compound was added to 90 μL cells, and then incubated at 37° C. for 4 days. Cell proliferation was analyzed by WST-8, which could be reduced by lactate dehydrogenase in the cells to a yellow formazan. 10 μL of WST-8 reagent (DOJINDO) was added to the cells and reacted for more than 1 hour at 37° C., DMSO-treated cells were used as […]. The absorption value of 490 nm was read by enzyme-labeled plate, and the absorption value of 690 nm was taken as the background value, and OD490-OD690 was taken as the final original data, and the data was processed by GraphPad Prism6 software. The formula for calculating the inhibition rate of the compound was: inhibition rate=(ODDMSO−ODcompound)/(ODDMSO−Oblank)×100%. The compound's proliferation inhibition IC50 was fitted by Graph Pad Prism 5.0. The experiment was repeated three times, and three parallel experiments were used to calculate the average and standard deviation each time. The cell viability test results were shown in Table 4: A means cell viability IC50<1 μM, B means cell viability 1 μM≤IC50≤20 μM, C means cell viability IC50>20 μM, NT means not tested.

[7] = tested on: prostate cancer cells PC-3; assay: Proliferation of other tumor cells, PC-3 (WST-8); type: cell-based; conditions: Homo sapiens, 96 h, PC-3 cells, 4 days, read-out: Inhibitory activity on proliferation, PC-3 (IC50)
Experimental: as §2, §3

[8] = tested on: triple negative breast cancer cells MDA-MB-231; assay: Proliferation of other tumor cells, MDA-MB-231 (WST-8); type: cell-based; conditions: Homo sapiens, 96 h, MDA-MB-231 cells, 4 days, read-out: Inhibitory activity on proliferation, MDA-MB-231 (IC50)
Experimental: as §2, §3

[9] = tested on: Colorectal cancer cells HCT-116; assay: Proliferation of other tumor cells, HCT-116 (WST-8); type: cell-based; conditions: Homo sapiens, 96 h, HCT-116 cells, 4 days, read-out: Inhibitory activity on proliferation, HCT-116 (IC50)
Experimental: as §2, §3

[10] = target: T1, CRBN (Homo sapiens, UniProt Q96SW2); assay: Verification of interaction between compound and CRBN (elution from thalidomide FG beads, Western blotting); type: binding; parameters: dose or concentration left out as unconfirmed; conditions: Mino cell lysate, 25° C., 15 minutes, Western blotting with CRBN antibody
T1 construct: lyse the blood tumor Mino cells, and centrifuged to obtain a clear cell lysate; endogenous in cells; host or cells: Mino cells (mantle cell lymphoma), lysate
Description: Studies have shown that lenalidomide immunomodulators in hematological tumor cell lines regulate the activity of CRBN-ubiquitin ligase complex by binding to CRBN, selectively induce ubiquitination and degradation of transcription factors IKZF1 and IKZF3, thereby achieving the role of treating malignant hematological tumors (Science, 2014, 343, 301; Science, 2014, 343, 305; Nature, 2015, 523, 183). By using high-efficiency affinity magnetic nanoparticles “FG beads”, thalidomide analogues were pre-attached to the magnetic beads, and the thalidomide FG beads could catch CRBN protein (Leukemia, 2012, 26, 2326; Science, 2010, 327, 1345). In this experiment, NP-400 cell lysate was used to lyse the blood tumor Mino cells, and centrifuged to obtain a clear cell lysate and divided it into three samples evenly. Thalidomide FG beads were added to the three samples, and the Thalidomide FG beads and the cell lysate were combined and incubated at 4° C. for 6 hours. After the incubation was completed, separated the magnetic beads with a magnetic stand, resuspended the separation with NP-400 lysate, repeated 3 times to obtain magnetic beads removed excess cell lysate. […] The eluate was denatured by heating with SDS Loading Buffer, and the amount of CRBN in each sample was detected by Western blotting with CRBN antibody (Proteintech).

T1 sequence (Q96SW2 whole entry): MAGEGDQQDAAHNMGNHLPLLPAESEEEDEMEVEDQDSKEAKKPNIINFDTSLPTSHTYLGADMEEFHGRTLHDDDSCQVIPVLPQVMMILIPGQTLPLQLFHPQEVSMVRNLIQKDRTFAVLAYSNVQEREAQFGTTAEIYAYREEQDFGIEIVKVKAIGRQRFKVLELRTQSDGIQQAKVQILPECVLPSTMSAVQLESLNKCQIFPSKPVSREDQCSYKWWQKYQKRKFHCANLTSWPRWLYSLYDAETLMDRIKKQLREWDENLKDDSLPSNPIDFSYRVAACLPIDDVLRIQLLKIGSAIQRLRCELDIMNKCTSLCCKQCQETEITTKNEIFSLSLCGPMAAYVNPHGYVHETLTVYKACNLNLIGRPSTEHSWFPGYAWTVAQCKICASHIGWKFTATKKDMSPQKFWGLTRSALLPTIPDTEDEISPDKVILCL

Row | pIC50 [4] | pIC50 [6] | pIC50 [7] | pIC50 [8] | pIC50 [9] | SMILES | inhibition at 0.01 µM [1] | Increase multiple of IL-2 Expression [2] | Increase multiple of IFNγ expression [3] | pIC50 [5] | Elution of CRBN from thalidomide FG beads [10]
1 | – | – | – | – | – | O=C1CCC(N2Cc3c(OCc4cn(-c5ccc(OC(F)(F)F)cc5)nn4)cccc3C2=O)C(=O)N1 (stereo not drawn) [CCC-135 (compound 17)] | > 50% | >3 | >1.5 | – | –
2 | > 6.82 | 4.70 to 6.00 | 4.70 to 6.00 | < 4.70 | 4.70 to 6.00 | O=C1CCC(N2Cc3c(OCc4cnc(-c5ccc(OC(F)(F)F)cc5)o4)cccc3C2=O)C(=O)N1 (stereo not drawn) [Compound 45, 3-(1-oxo-4-((2-(4-trifluoromethoxyphenyl)oxazol-5-)methoxy)isoindolin-2-) piperidine-2,6-dione] | – | – | – | > 6.82 | –
3 | > 6.82 | 4.70 to 6.00 | 4.70 to 6.00 | 4.70 to 6.00 | 4.70 to 6.00 | O=C1CCC(N2Cc3c(OCc4cn(-c5ccc(OC6CCOCC6)cc5)nn4)cccc3C2=O)C(=O)N1 (stereo not drawn) [Compound 30, 3-(1-oxo-4-((1-(4-((2H-tetrahydropyran-4-)oxy)phenyl)-1H-1,2,3-triazol-4-)methoxy)isoindolin-2-)piperidine-2,6-dione] | – | – | – | > 6.82 | –
4 | > 6.82 | – | – | – | – | O=C1CCC(N2Cc3c(OCc4cn(-c5ccc(OC(F)(F)F)cc5)nn4)cccc3C2=O)C(=O)N1 (stereo not drawn) [Compound 17] | – | – | – | > 6.82 | can elute CRBN from the magnetic beads bound to thalidomide

— patent US20220041578A1, “ISOINDOLINE COMPOUND, AND PREPARATION METHOD, PHARMACEUTICAL COMPOSITION, AND APPLICATION OF ISOINDOLINE COMPOUND” (Shanghai Institute of Meteria Medica, Chinese Academy of …, priority 2018, published 2022)
